The source of these data is patent publication US8349827B2, “Substituted dipyrido-pyrimido-diazepine and benzo-pyrido-pyrimido compounds” (ArQule, Inc., priority 2009, dated 2013).

Bounds are passed on as bounds.

For one assay, the system named is PACA-2. Put plainly: MTS assay, PACA-2 cells. It counts as cell-based. Conditions: 72 hours. As to the method: (§1) Cells were maintained at 37° C., 5% CO2 in DMEM media supplemented with 1% fetal bovine serum, penicillin/streptomycin and fungizone (Invitrogen). Cells were seeded into 96-well tissue culture plates at 3000 per well and cultured at 37° C. for 18 hours. Test compounds were dissolved and diluted to 300× in DMSO then diluted 1:40 in DMEM. Cells were incubated with test compounds for 72 hours followed by incubation with tetrazolium compound (3-(4,5-dimethylthiazol-2-yl)-5-(3-carboxymethoxyphenyl)-2-(4-sulfophenyl)-2H-tetrazolium, inner salt; MTS) and the electron coupling reagent, phenazine methosulfate (PMS) for 4 hours. […] The ability of compounds to inhibit cell growth in this assay is correlated with the reduction of dehydrogenase enzyme activity found in metabolically active cells. The measurement of the absorbance of the formazan was assessed using an ENVISION™ (Perkin Elmer) microplate reader at 492 nm. The calculated IC50 value is the concentration of the test compound that causes a 50% decrease in the absorbance.
A general note: Tetrazolium assays rely on reduction of a dye to a coloured formazan, in cell work by metabolically active cells.

Another assay has as its system NCI-H1299. Put plainly: MTS assay, NCI-H1299 cells. It counts as cell-based. Conditions: Homo sapiens, 72 hours. On the procedure: as §1
Another assay concerns the target ABL (Homo sapiens, UniProt P00519). Put plainly: ABL Kinase Activity Assay (Elisa), ABL. It counts as biochemical. Conditions: ATP 100 μM, read-out: Abl Enzymetic assay (Elisa) % inhibition. On the procedure:
(§2) ABL Kinase Activity Assay
(§3) The disclosed compounds were assayed for their ability to inhibit the activity of ABL kinase. Nunc Maxisorb plates were coated with streptavidin by overnight incubation with 100 μL per well of 1 μg/ml streptavidin in DPBS. Prior to the experiment, the plates were washed with TBST (3×200 μL) and blocked for at least 3 hours by adding 150 μL of 5% BSA/TBST. The plates were washed with TBST (3×200 μL/well) and left dry immediately before the capture step.
(§4) The disclosed test compounds and controls (Gleevec) were prepared using the following assay buffer@10× desired final concentration (50 mM Tris pH 7.0, 0.02 mg/ml BSA, 10 mM MgCl2, 0.1 mM Na3VO4, 1 mM EGTA, 0.01% NP-40, 1 mM DTT in 10% glycerol/water). In a reaction plate, 5 μl test article (or control) and 30 μl ABL or ABL T315I (0.089 nM final concentration, in the above buffer) were added rapidly. The plate was incubated for 20 minutes. To the reaction plate was added ATP (100 μM final concentration) and AblTide (128 nM final concentration) in a volume of 15 μl. The plate was incubated at room temperature for one hour.
(§5) From the reaction plate, 40 μl was transferred to the streptavidin coated plate. The capture plate was incubated at room temperature for 30 minutes, then washed 3× with TBST. To the capture plate was added 100 μL/well of cell signaling anti-phospho tyrosine at a dilution of 1:3000 in 2% BSA/TBST. The plate was incubated for two hours at room temperature then washed 3× with TBST. To the capture plate was added 100 μL/well of alkaline phosphatase tagged goat anti mouse antibody at a dilution of 1:4000 in 2% BSA/TBST. The plate was incubated for one hour at room temperature then washed 3× with TBST.
(§6) The fluorescent readout was initiated by the addition of 100 μl/well of Attophos reagent (6 mg/10 mL). The reading was done on the Perkin Elmer Envision system.

In another assay the target is ABL T315I (Homo sapiens, UniProt P00519, T315I). Put plainly: ABL Kinase Activity Assay (Elisa), ABL T315I. The settings on record: ATP 100 μM, read-out: Abl(T315I) Enzymetic assay (Elisa) % inhibition. It counts as biochemical. As to the method: as §2, §3, §4, §5, §6
A further assay has as its system PC-3. Put plainly: MTS assay, PC-3 cells. Conditions: Homo sapiens, 72 hours. It counts as cell-based. On the procedure: as §1
The next assay deals with DLD-1. Briefly: MTS assay, DLD-1 cells. It counts as cell-based. Conditions: Homo sapiens, 72 hours. On the procedure:
as §1

The test system of the next assay is MDA-MB-231. Briefly: MTS assay, MDA-MB-231 cells. The settings on record: Homo sapiens, 72 hours. It counts as cell-based. On the procedure: as §1
Another assay concerns KATO III. Put plainly: MTS assay, KATO III cells. It counts as cell-based. The settings on record: Homo sapiens, 72 hours. On the procedure:
as §1

Usually inhibition stands for the drop in the measured response relative to a control, in per cent. As to `c1cnc2c(c1)-c1nc(NCC3CCNCC3)ncc1-c1ccncc1N2` [Example 60, N-(piperidin-4-ylmethyl)-9H-dipyrido[2,3-b:4′,3′-f]pyrimido[4,5-d]azepin-2-amine], the inhibition at 10 µM in the assay on PACA-2 was 80 to 100%; in the assay with NCI-H1299, 50 to 79%; at ABL, 50 to 79%; at ABL T315I it was less than 50%; with PC-3, 80 to 100%; in the assay with DLD-1, 50 to 79%. Also, the inhibition at 10 µM in the assay with MDA-MB-231 and in the assay with KATO III was 80 to 100% throughout.
As for `O=C1CCCN1CCCNc1ncc2c(n1)-c1cccnc1Nc1cnccc1-2` [Example 4, 1-[3-(9H-dipyrido[2,3-b:4′,3′-f]pyrimido[4,5-d]azepin-2-ylamino)propyl]pyrrolidin-2-one], the inhibition at 10 µM with NCI-H1299 is less than 50%; at ABL, 50 to 79%; at ABL T315I, 80 to 100%; in the assay on PC-3 it was less than 50%; with DLD-1, less than 50%; in the assay on MDA-MB-231 it was less than 50%. In the assay with KATO III, this molecule came in with an inhibition at 10 µM of less than 50%.
Regarding `Nc1ncc2c(n1)-c1cccnc1Nc1ccccc1-2` [Example 62, 9H-pyrido[2,3-b]pyrimido[4,5-d][1]benzazepin-2-amine], the inhibition at 10 µM in the assay with PACA-2 is less than 50%; at ABL it was 50 to 79%; at ABL T315I it was 50 to 79%; with PC-3, less than 50%; with MDA-MB-231 it was less than 50%; in the assay on KATO III, less than 50%.
Take `CN(C)CCCNc1ncc2c(n1)-c1cccnc1Nc1cnccc1-2` [Example 50, N′-9H-dipyrido[2,3-b:4′,3′-f]pyrimido[4,5-d]azepin-2-yl-N,N-dimethylpropane-1,3-diamine]: the inhibition at 10 µM was less than 50% in the assay on PACA-2; 50 to 79% at ABL; less than 50% on ABL T315I; less than 50% in the assay on PC-3; less than 50% in the assay on KATO III.
As to `CC(CO)Nc1ncc2c(n1)-c1cccnc1Nc1cnccc1-2` (stereo not drawn) [Example 17, 2-(9H-dipyrido[2,3-b:4′,3′-f]pyrimido[4,5-d]azepin-2-ylamino)propan-1-ol], the inhibition at 10 µM was 80 to 100% on ABL, 80 to 100% at ABL T315I, less than 50% in the assay with PC-3 and less than 50% in the assay on KATO III.
On to `c1ccc(-c2cccc(CNc3ncc4c(n3)-c3cccnc3Nc3cnccc3-4)c2)cc1` [Example 45, N-(biphenyl-3-ylmethyl)-9H-dipyrido[2,3-b:4′,3′-f]pyrimido[4,5-d]azepin-2-amine], for which the inhibition at 10 µM in the assay with PACA-2 was 80 to 100%; with NCI-H1299, 50 to 79%; at ABL, 80 to 100%; at ABL T315I, 80 to 100%; with PC-3, less than 50%; with DLD-1, 80 to 100%. This molecule returned an inhibition at 10 µM with KATO III of 80 to 100%.
As to `CCC(CC)Nc1ncc2c(n1)-c1cccnc1Nc1cnccc1-2` [Example 18, N-(1-ethylpropyl)-9H-dipyrido[2,3-b:4′,3′-f]pyrimido[4,5-d]azepin-2-amine], the inhibition at 10 µM in the assay with NCI-H1299 is less than 50%; on ABL, 80 to 100%; at ABL T315I it was 80 to 100%; in the assay with PC-3 it was less than 50%; in the assay with DLD-1, less than 50%; in the assay on MDA-MB-231, less than 50%. In the assay on KATO III, the inhibition at 10 µM is 50 to 79%.
With `COc1cc(CCNc2ncc3c(n2)-c2cccnc2Nc2cnccc2-3)cc(OC)c1` [Example 38, N-[2-(3,5-dimethoxyphenyl)ethyl]-9H-dipyrido[2,3-b:4′,3′-f]pyrimido[4,5-d]azepin-2-amine], the inhibition at 10 µM in the assay with PACA-2 was less than 50%; on ABL it was 50 to 79%; at ABL T315I, less than 50%; in the assay on PC-3, less than 50%; in the assay with DLD-1 it was less than 50%; with KATO III, less than 50%.
With `Fc1ccc(CNc2ncc3c(n2)-c2ccccc2Nc2cnccc2-3)c(F)c1` [Example 69, N-(2,4-difluorobenzyl)-9H-pyrido[3,4-b]pyrimido[5,4-d][1]benzazepin-2-amine], the inhibition at 10 µM with PACA-2, with NCI-H1299, in the assay on PC-3, in the assay with DLD-1, in the assay on MDA-MB-231 and in the assay on KATO III was 80 to 100% in each case.
Turning to `CN(C)CCCCCNc1ncc2c(n1)-c1cccnc1Nc1cnccc1-2` [Example 48, N′-9H-dipyrido[2,3-b:4′,3′-f]pyrimido[4,5-d]azepin-2-yl-N,N-dimethylpentane-1,5-diamine], the inhibition at 10 µM was less than 50% with PACA-2; 80 to 100% on ABL; 80 to 100% at ABL T315I; 50 to 79% in the assay on PC-3; less than 50% with DLD-1; 50 to 79% in the assay on MDA-MB-231. The same molecule yielded an inhibition at 10 µM in the assay on KATO III of less than 50%.
On to `Clc1cccc(CNc2ncc3c(n2)-c2ccccc2Nc2cnccc2-3)c1` [Example 70, N-(3-chlorobenzyl)-9H-pyrido[3,4-b]pyrimido[5,4-d][1]benzazepin-2-amine], for which the inhibition at 10 µM in the assay with PACA-2, with NCI-H1299, with PC-3, in the assay with DLD-1, with MDA-MB-231 and in the assay with KATO III was 80 to 100% throughout.
On to `Brc1ccc(CCNc2ncc3c(n2)-c2cccnc2Nc2cnccc2-3)cc1` [Example 46, N-[2-(4-bromophenyl)ethyl]-9H-dipyrido[2,3-b:4′,3′-f]pyrimido[4,5-d]azepin-2-amine], for which the inhibition at 10 µM with PACA-2 was less than 50%; with NCI-H1299 it was less than 50%; on ABL it was 80 to 100%; on ABL T315I, 80 to 100%; in the assay with PC-3, less than 50%; in the assay with DLD-1, 50 to 79%. This molecule also displayed an inhibition at 10 µM with KATO III of 50 to 79%.
As to `Fc1ccc(CNc2ncc3c(n2)-c2cccnc2Nc2cnccc2-3)c(Cl)c1` [Example 10, N-(2-chloro-4-fluorobenzyl)-9H-dipyrido[2,3-b:4′,3′-f]pyrimido[4,5-d]azepin-2-amine], the inhibition at 10 µM was less than 50% with NCI-H1299; 80 to 100% on ABL; 80 to 100% on ABL T315I; less than 50% in the assay on PC-3; less than 50% in the assay with MDA-MB-231.
Regarding `Fc1ccc(CNc2ncc3c(n2)-c2cccnc2Nc2ccccc2-3)c(F)c1` [Example 64, N-(2,4-difluorobenzyl)-9H-pyrido[2,3-b]pyrimido[4,5-d][1]benzazepin-2-amine], the inhibition at 10 µM in the assay with NCI-H1299 was less than 50%; at ABL, 50 to 79%; on ABL T315I, less than 50%; with PC-3 it was less than 50%; with DLD-1 it was less than 50%; in the assay on MDA-MB-231, less than 50%. The inhibition at 10 µM with KATO III is less than 50%.
Turning to `c1cnc2c(c1)-c1nc(NC3CCNCC3)ncc1-c1ccncc1N2` [Example 59, N-piperidin-4-yl-9H-dipyrido[2,3-b:4′,3′-f]pyrimido[4,5-d]azepin-2-amine], the inhibition at 10 µM on ABL, on ABL T315I, in the assay on PC-3, with MDA-MB-231 and in the assay with KATO III was 80 to 100% throughout.
